The text below walks through data of patent US8753841B2, “Enzyme that catalyzes a peptide-forming reaction from a carboxy component and an amine component, microbe producing the same, and a method of producing a dipeptide using the enzyme or microbe” (Ajinomoto Co., Inc., priority 2002, dated 2014).

In assay [1] the test system is peptide-forming enzyme from Empedobacter brevis strain FERM BP-8113. The assay is described as follows: Enzyme inhibitors: effect on L-alanyl-L-glutamine production by the Mono S fraction enzyme. In kind it is biochemical. The conditions noted are these: for inhibition of the enzyme by serine enzyme inhibitors (in words): pH 9.0, 25° C.
The test system is the same in assay [2]. Briefly: Substrate specificity of enzyme (peptide production from carboxy and amine components). The format is biochemical. To be noted: L-amino acid methyl ester hydrochloride 100 mM, pH 9.0, 25° C., 3 hours. An excerpt: Ester specificity was examined in the case of using L-amino acid ester for the carboxy component. […] HCl represents hydrochloride in Table 4.
Peptide production was examined in the case of using L-alanine methyl ester for the carboxy component and using various L-amino acids for the amine component.
Peptide production was examined in the case of using various types of L-amino acid methyl esters for the carboxy component and using L-glutamine for the amine component. […] Furthermore, Tween-80 was added to the reaction system to a final concentration of 0.1% in the case of using L-Trp-OMe and L-Tyr-OMe.

Assay [3] relates to enzyme derived from Sphingobacterium sp. strain FERM BP-8124. The assay is described as follows: Substrate specificity of enzyme derived from Sphingobacterium sp. The format is biochemical. Also on record: key to Produced peptide (mM): +: those peptides for which production was confirmed but which were unable to be quantified due to the absence of a standard; a trace amount. The conditions noted are these: carboxy component 100 mM, 0.33 units enzyme, pH 9.0, 25° C., 1.5 hours.

Assay [4] has as its system Empedobacter brevis strain FERM BP-8113 microbial cells. The assay is described as follows: Production of peptide using microbial cells of Empedobacter brevis. In kind it is cell-based. To be noted: 1 mL 100 g/L cell suspension + 1 mL buffer with 200 mM carboxy component, 400 mM amino acid, 10 mM EDTA, pH 9.0, 18° C., 2 hours. The procedure: A 50 mL medium (pH 6.2) containing 5 grams (g) of glucose, 5 g of ammonium sulfate, 1 g of monopotassium phosphate, 3 g of dipotassium phosphate, 0.5 g of magnesium sulfate, 10 g of yeast extract and 10 g of peptone in 1 liter (L) was transferred to a 500 mL Sakaguchi flask and sterilized at 115° C. for 15 minutes.
Microbial cells were collected by centrifuging (10,000 rounds per minute (rpm), 15 minutes) the culture broth obtained in Example 1, followed by suspending them to a concentration of 100 g/L in 100 mM borate buffer (pH 9.0) containing 10 mM EDTA. After respectively adding 1 mL of the suspension to 1 mL each of 100 mM borate buffer solutions (pH 9.0) containing 10 mM EDTA, 200 mM of the following carboxy components, and 400 mM of the following amino acids to make a final volume of 2 mL, the reaction was carried out at 18° C. for 2 hours.

The test system of assay [5] is peptide-forming enzyme from Empedobacter brevis strain FERM BP-8113. Briefly: Substrate specificity of enzyme (peptide production from carboxy and amine components). The format is biochemical. The conditions noted are these: pH 9.0, 25° C., 3 hours; for Formed peptide: L-amino acid amide hydrochloride 100 mM as carboxy component, L-amino acid 150 mM.
Assay [6] has the same test system. Described as above. In kind it is biochemical. On the set-up: key: +: those peptides for which production was confirmed but which were unable to be quantified due to the absence of a standard; a trace amount. The conditions noted are these: 0.1 unit enzyme, 25° C.
The mark [7] stands for this setting: inhibitor at 10 mM, borate buffer pH 9.0, 25° C., 5 minutes, 100 = absence of enzyme inhibitor.
Setting [8] is: Table 15-3, amine component 150 mM.
[9] abbreviates: carboxy component 100 mM, amine component 150 mM, reaction time 3 hr.
Where [10] appears, read: Table 15-1, amine component 150 mM.
The mark [11] stands for this setting: Table 15-4, amine component 150 mM.

Chain of enzyme derived from Sphingobacterium sp. strain FERM BP-8124 (as listed by the source): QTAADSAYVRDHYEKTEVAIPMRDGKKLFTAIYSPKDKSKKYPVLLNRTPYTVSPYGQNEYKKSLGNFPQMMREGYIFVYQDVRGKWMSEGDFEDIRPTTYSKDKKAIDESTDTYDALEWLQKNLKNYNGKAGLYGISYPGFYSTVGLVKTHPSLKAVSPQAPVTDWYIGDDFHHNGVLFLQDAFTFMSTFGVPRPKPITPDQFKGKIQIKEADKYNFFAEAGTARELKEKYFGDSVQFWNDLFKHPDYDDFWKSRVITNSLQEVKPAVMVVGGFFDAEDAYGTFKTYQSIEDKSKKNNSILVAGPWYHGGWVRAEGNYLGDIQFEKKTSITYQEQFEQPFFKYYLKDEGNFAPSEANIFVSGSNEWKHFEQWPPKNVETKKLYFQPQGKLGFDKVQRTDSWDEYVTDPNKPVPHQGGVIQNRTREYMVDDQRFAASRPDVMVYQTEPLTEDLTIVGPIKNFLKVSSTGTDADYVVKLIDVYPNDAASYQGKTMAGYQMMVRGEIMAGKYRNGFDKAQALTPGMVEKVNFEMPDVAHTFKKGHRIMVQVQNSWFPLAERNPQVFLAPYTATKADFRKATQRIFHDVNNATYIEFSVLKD

Consider `O=C(O)CN(CCN(CC(=O)O)CC(=O)O)CC(=O)O` [EDTA, ethylene diamine tetraacetic acid], for which the “Relative activity of L-Ala-L-Gln production (%)” value (from here on “Relative activity … (%)”) in assay [1] (setting [7]) worked out at 96%. `O=C(O)CI` [Monoiodoacetate]: the “Relative activity … (%)” value in assay [1] (pH 9) was found to be 101%.

On to `CCN1C(=O)C=CC1=O` [N-Ethyl maleimide], for which, in assay [1] (setting [7]), the “Relative activity … (%)” value turned out to be 110%. For the compound `O=S(=O)(F)Cc1ccccc1` [Phenylmethylsulfonyl fluoride], the “Relative activity … (%)” value in assay [1] (setting [7]) is recorded as 115%. Besides, the “inhibition of the enzyme by serine enzyme inhibitors (in words)” value in assay [1] (inhibitor at 10 mM, 5 minutes) was “not inhibited”. Regarding `c1cnc2c(c1)ccc1cccnc12` [o-Phenanthroline], in assay [1] (setting [7]), the “Relative activity … (%)” value is reported as 96%. In the case of `N=C(N)Nc1ccc(C(=O)Oc2ccc([N+](=O)[O-])cc2)cc1` [p-Nitrophenyl-p′-guanidino benzoate, p-nitrophenyl-p′-guanidinobenzoate], the “Relative activity … (%)” value in assay [1] (setting [7]) was 0.1%. Also, the “inhibition of the enzyme by serine enzyme inhibitors (in words)” value in assay [1] (inhibitor at 10 mM, 5 minutes) is listed as “inhibited”. With Gly-L-Arg, in assay [2] (L-amino acid 150 mM), the “Formed peptide” value came out at 25.5 mM. In addition, the “Produced peptide” value in assay [3] (setting [8]) is 17.9 mM. For the compound Gly-L-Gln, in assay [2] (150 mM L-glutamine), the “Formed peptide” value was 54.7 mM. Moreover, the “Produced peptide” value in assay [3] (Table 15-2, L-Gln 150 mM) stood at 61.1 mM. On to Gly-L-His, for which the entries for the “Formed peptide” value in assay [2] (L-amino acid 150 mM) and in assay [4] were 31.6 mM and 22.1 mM, respectively. Besides, the “Produced peptide” value in assay [3] (setting [8]) was determined as 36.2 mM. Consider Gly-L-Lys, for which, in assay [2] (L-amino acid 150 mM), the “Formed peptide” value was 9.8 mM. Further, the “Produced peptide” value in assay [3] (setting [8]) worked out at 48.2 mM. As to Gly-L-Phe, the “Formed peptide” value in assay [2] (L-amino acid 150 mM) was found to be 44.0 mM. Moreover, the “Produced peptide” value in assay [5] (oligopeptide production, amount of enzyme 0.1 unit) worked out at 17.3 mM; in assay [3] (setting [8]), 20.0 mM.

For Gly-L-Ser, the “Formed peptide” value in assay [2] (L-amino acid 150 mM) was 44.2 mM. Besides, the “Produced peptide” value in assay [3] (setting [8]) was 53.8 mM. Regarding H-2-Nal-H-Gln-OH, the “Produced peptide (mM)” value in assay [6] (carboxy component 40 mM, amine component 40 mM, reaction time 3 hr) is recorded as “tr”. As to H-Ser(tBu)-Gln-OH, the “Produced peptide (mM)” value in assay [6] (carboxy component 100 mM, amine component 150 mM, reaction time 2 hr) is given as “tr”. Consider H-p-F-Phe-H-Gln-OH, for which the “Produced peptide (mM)” value in assay [6] (setting [9]) was “tr”. Regarding H-t-Leu-H-Gln-OH, the “Produced peptide (mM)” value in assay [6] (setting [9]) is “tr”.

For the compound H—Cl—F-Phe-H-Gln-OH, the “Produced peptide (mM)” value in assay [6] (carboxy component 25 mM, amine component 50 mM, reaction time 3 hr) was “tr”. Take H—N—Me-Ala-Phe-OH: the “Produced peptide (mM)” value in assay [6] (setting [9]) was “tr”. With L-Ala-L-Arg, the “Formed peptide” value in assay [4] is given as 72.1 mM. Further, the “Produced peptide” value in assay [3] (setting [10]) was 72.2 mM.

With L-Ala-L-His, the entries for the “Formed peptide” value in assay [4] and in assay [5] were 52.1 mM and 3.9 mM, respectively. Besides, in assay [3] (setting [10]), the “Produced peptide” value came out at 73.6 mM. In addition, the “Produced peptide (mM)” value in assay [3] (setting [11]) is given as “tr”.

As to L-Ala-L-Leu, the “Formed peptide” value in assay [4] was 38.2 mM. Further, the “Produced peptide” value in assay [3] (setting [10]) worked out at 33.0 mM. Take L-Ala-L-Met: the “Formed peptide” value was found to be 68.3 mM in assay [4] and 3.4 mM in assay [5]. In addition, the “Produced peptide” value in assay [3] (setting [10]) is given as 86.9 mM. The “Produced peptide (mM)” value in assay [3] (setting [11]) was “tr”.

On to L-Ala-L-Phe, for which the “Formed peptide” value in assay [4] came out at 62.4 mM. Moreover, the “Produced peptide” value in assay [3] (setting [10]) was 69.5 mM. On to L-Ala-L-Ser, for which the “Formed peptide” value in assay [4] worked out at 51.3 mM. Besides, in assay [3] (setting [10]), the “Produced peptide” value was found to be 43.8 mM. Turning to L-Arg-L-Gln, in assay [2] (150 mM L-glutamine), the “Formed peptide” value came to 7.1 mM. Also, the “Produced peptide” value in assay [3] (Table 15-2, L-Gln 150 mM) was found to be 17.2 mM. For the compound L-Arg-L-Met, the “Formed peptide” value in assay [2] (L-amino acid 150 mM) is recorded as 0.7 mM. Further, in assay [3] (setting [8]), the “Produced peptide (mM)” value was “tr”.

On to L-Arg-L-Phe, for which the “Formed peptide” value in assay [2] (L-amino acid 150 mM) was 1.9 mM. The “Produced peptide (mM)” value in assay [3] (setting [8]) is given as “tr”. As for L-Arg-L-Ser, the “Formed peptide” value in assay [2] (L-amino acid 150 mM) came to 3.6 mM. For the same compound, in assay [3] (setting [8]), the “Produced peptide” value came to 2.2 mM.
